These results are taken from US11999805B1, “Peptide inhibitors of CRISPR-Cas9” (priority 2020, dated 2024).

“Also recorded” adds a separate entry of the source. Where two headings read alike, the source gives them in different places. No end group written: not given here.

Assay [1] addresses T1, SpyCas9 (Streptococcus pyogenes serotype M1, UniProt Q99ZW2). The assay is classed as biochemical, S. pyogenes. The following applies: for IC50: read-out: SpyCas9 IC50, FRET cleavage assay, concentration curves, 0.5 μM Cas9, 50 nM DNA substrate. On the procedure: (§1) To determine whether synthetic peptides would inhibit Cas9 cleavage activity, 200 peptide sequences were selected for chemical synthesis based on the following criteria: (1) peptides enriched after independent panning on RNP immobilized on both the Monomeric Avidin and NeutrAvidin columns, (2) Higher Boman index (>2.3), the computed potential protein-protein interaction for a given amino-acids sequence (3) a predicted instability index below 50. Theses peptides were screened at 200 μM for inhibition of Cas9 cleavage activity using the recently developed HT FRET-based assay using a dual-quencher substrate with low background and high sensitivity. See Seamon K J, Light Y K, Saada E A, Schoeniger J S, Harmon B. 2018. Versatile High-Throughput Fluorescence Assay for Monitoring Cas9 Activity. Analytical Chemistry 90:6913-6921. This assay specifically measures DNA substrate cleavage, and is able to differentiate between cleavage of a single strand of DNA and cleavage of both DNA strands.
(§2) Reactions (10 μL tubes) were set up in Cas9 reaction buffer (20 mM Tris-HCl, pH 7.5, 100 mM NaCl, 5 mM MgCl2, 0.1 mM EDTA) containing 50 nM annealed DNA substrate, 1.5 μM sgRNA, and 500 nM Cas9 in the wells of a black low volume 384-well plate. The reactions were incubated for 1 hour at ambient temperature; then, 10 μL of 8 M Gdn-HCl was added to quench the reaction before the plates were covered with an aluminum seal and incubated at 80° C. for 10 minutes. The fluorescence was read in a Tecan Infinite M1000 or SPARK plate spectrofluorometer (Tecan).
(§3) The peptides were diluted 2-fold from 200 to 12.5 μM and incubated for 1 hour with 500 nM SpyCas9, gRNA prior to addition of 50 nM FRET DNA substrate for 1 hour. […] Data are the average ±SD of three replicate wells.
(§4) For the 11 original peptides reactions (10 μL) were set up in Cas9 reaction buffer [20 mM Tris-HCl, pH 7.5, 100 mM NaCl, 5 mM MgCl2, 0.1 mM EDTA] containing 50 nM annealed DNA substrate, 1.5 μM sgRNA, and 0.5 μM Cas9 in the wells of a black low volume 384-well plate. The reactions were incubated for 1 hour at ambient temperature with the indicated concentration of peptide; then, 10 μL, of 8 M Guanidine-HCl was added to quench the reaction. The plates were covered with an aluminum seal and incubated at 75° C. for 10 minutes and cooled down to RT before reading.
(§5) The % inhibition was determined by subtracting normalized relative fluorescent value to Cas9 without peptides (% activity) from 100% cleavage activity of CjeCas9, SauCas9, SpyCas9 by FRET assay. Data are the average ±SD of eleven replicate wells from three technical replicates at the indicated concentration of peptides.
(§6) FIGS. 12A, 12B, and 12C show graphs of measurements and fitted curves of concentration dependent inhibition of mutated peptides against Cas9 variants. The inhibition was measured as relative fluorescent value to Cas9 without peptides (% activity) of CjeCas9 (line with squares), SauCas9 (line with diamonds), SpyCas9 (line with triangles) by FRET assay with the indicated concentration of peptides and compared to original peptides (line with circles). Data are the average ±SD of eleven replicate wells from three technical replicates.

For assay [2], the system named is SpyCas9. The assay is classed as biochemical, S. pyogenes. On the procedure:
as §1, §2, §3, §4, §5, §6

The target of assay [3] is T2, SauCas9 (Staphylococcus aureus, UniProt J7RUA5).
T2 construct: made in house; host or cells: E. coli BL21(star)DE3
The assay is described as follows: HT FRET-based Cas9 cleavage activity assay, SauCas9. Format: biochemical, S. aureus. On the procedure:
(§7) To evaluate the ability of identified peptides to inhibit other Cas9 variants, SauCas9 and CjeCas9 cleavage assays were used to quantitatively measure changes in activity. […] The inhibition was measured as relative fluorescent value to Cas9 without peptides (% activity) of CjeCas9 (Top), SauCas9 (middle), SpyCas9 (bottom) by FRET assay with the indicated concentration of peptides. Data are the average ±SD of eleven replicate wells from three technical replicates.
as §4, §5, §6

The target of assay [4] is T3, CjeCas9 (Campylobacter jejuni subsp. jejuni serotype O:2, UniProt Q0P897).
T3 construct: made in house; host or cells: E. coli BL21(star)DE3
The assay is described as follows: HT FRET-based Cas9 cleavage activity assay, CjeCas9. The assay is classed as biochemical, C. jejuni. On the procedure:
as §7, §4, §5, §6

Assay [5] addresses T4, SauCas9 (Staphylococcus aureus, UniProt J7RUA5).
T4 construct: made in house; host or cells: E. coli BL21(star)DE3
T4 sequence (J7RUA5 whole entry, looked up): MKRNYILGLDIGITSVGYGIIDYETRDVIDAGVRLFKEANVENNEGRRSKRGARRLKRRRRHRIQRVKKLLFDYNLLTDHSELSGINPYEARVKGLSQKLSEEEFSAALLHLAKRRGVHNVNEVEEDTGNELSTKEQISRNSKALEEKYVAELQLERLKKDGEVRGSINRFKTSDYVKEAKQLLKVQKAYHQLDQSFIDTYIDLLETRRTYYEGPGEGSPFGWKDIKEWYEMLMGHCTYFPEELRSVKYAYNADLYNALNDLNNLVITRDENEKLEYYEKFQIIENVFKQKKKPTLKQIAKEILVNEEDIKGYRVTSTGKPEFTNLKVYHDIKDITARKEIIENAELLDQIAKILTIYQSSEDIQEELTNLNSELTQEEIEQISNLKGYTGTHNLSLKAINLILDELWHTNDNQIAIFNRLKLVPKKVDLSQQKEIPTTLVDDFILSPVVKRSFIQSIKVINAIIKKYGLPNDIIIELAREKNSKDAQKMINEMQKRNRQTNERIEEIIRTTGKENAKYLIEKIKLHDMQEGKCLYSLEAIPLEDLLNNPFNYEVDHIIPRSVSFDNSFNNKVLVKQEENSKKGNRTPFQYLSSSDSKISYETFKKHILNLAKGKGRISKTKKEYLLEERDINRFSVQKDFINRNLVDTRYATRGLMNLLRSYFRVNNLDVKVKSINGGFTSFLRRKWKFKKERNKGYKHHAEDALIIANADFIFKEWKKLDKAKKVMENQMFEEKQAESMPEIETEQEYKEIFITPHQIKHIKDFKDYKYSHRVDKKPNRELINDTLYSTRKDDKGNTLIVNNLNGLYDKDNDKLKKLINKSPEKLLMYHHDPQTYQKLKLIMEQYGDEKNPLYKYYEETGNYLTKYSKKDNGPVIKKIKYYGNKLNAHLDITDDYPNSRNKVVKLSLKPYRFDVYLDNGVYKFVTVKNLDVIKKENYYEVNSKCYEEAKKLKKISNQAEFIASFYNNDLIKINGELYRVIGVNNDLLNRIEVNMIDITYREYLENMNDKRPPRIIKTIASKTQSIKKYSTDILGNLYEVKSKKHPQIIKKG
The assay is described as follows: HT FRET-based Cas9 cleavage activity assay, SauCas9. Format: biochemical, S. aureus. On the procedure: as §7, §4, §5, §6
The source holds these as a separate data set.

Assay [6] addresses T1, SpyCas9. The assay is described as follows: Beacon DNA binding assay (Cas9 RNP binding to DNA substrate). More on the design: species or system S. pyogenes. On the procedure:
To determine the mechanism of action of these peptide inhibitors, a binding assay was performed to determine if inhibitors are blocking Cas9 RNP binding to the DNA substrate. The beacon DNA binding assay was adapted and performed as described in Mekler V, Minakhin L, Semenova E, Kuznedelov K, Severinov K. 2016. Kinetics of the CRISPR-Cas9 effector complex assembly and the role of 3′-terminal segment of guide RNA. Nucleic Acids Res 44:2837-45. DNA probes were prepared from unmodified and chromophore-labeled DNA oligonucleotides synthesized by Integrated DNA Technologies. Equimolar amounts of synthetic complementary strands were mixed in a buffer containing 40 mM Tris, pH 7.9, 100 mM NaCl; heated for 2 min at 90° C. and slowly cooled to 20° C. The PAM-distal ends of the beacon target and non-target strands were labeled with fluorescein and Iowa Black® FQ, respectively. Both beacons mimic native target DNA and bind Cas9/sgRNA. The fluorescent signal is increased when Cas9 binds the DNA substrate and a helix forms with the target substrate strand and gRNA resulting in dissociation of oligo 3, leading to increase in fluorescent signal.
Data are the average ±SD of three replicate wells.

T3 sequence (Q0P897 whole entry): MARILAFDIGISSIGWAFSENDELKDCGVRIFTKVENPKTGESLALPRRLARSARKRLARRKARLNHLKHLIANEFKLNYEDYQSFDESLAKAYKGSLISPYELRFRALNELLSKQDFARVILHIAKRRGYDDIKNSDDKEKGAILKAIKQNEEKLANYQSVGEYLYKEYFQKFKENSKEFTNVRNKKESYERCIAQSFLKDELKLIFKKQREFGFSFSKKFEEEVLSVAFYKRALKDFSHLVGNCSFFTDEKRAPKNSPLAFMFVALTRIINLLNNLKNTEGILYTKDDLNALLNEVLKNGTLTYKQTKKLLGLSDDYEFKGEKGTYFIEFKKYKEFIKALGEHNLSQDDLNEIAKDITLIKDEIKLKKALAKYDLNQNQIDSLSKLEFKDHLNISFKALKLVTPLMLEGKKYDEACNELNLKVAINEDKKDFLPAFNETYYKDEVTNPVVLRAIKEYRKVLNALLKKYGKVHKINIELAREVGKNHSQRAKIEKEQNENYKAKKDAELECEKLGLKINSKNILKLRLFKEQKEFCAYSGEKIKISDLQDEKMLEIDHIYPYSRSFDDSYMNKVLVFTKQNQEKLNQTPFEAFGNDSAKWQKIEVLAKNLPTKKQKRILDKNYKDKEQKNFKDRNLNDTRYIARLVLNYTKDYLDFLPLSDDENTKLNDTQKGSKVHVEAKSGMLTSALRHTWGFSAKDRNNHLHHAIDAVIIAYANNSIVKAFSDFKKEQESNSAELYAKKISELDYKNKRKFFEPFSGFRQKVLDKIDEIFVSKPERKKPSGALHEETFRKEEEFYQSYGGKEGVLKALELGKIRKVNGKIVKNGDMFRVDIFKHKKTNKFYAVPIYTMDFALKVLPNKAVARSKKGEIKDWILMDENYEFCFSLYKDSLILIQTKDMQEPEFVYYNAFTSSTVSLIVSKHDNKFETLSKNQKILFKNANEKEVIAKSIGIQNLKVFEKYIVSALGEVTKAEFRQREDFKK
T1 sequence (Q99ZW2 whole entry): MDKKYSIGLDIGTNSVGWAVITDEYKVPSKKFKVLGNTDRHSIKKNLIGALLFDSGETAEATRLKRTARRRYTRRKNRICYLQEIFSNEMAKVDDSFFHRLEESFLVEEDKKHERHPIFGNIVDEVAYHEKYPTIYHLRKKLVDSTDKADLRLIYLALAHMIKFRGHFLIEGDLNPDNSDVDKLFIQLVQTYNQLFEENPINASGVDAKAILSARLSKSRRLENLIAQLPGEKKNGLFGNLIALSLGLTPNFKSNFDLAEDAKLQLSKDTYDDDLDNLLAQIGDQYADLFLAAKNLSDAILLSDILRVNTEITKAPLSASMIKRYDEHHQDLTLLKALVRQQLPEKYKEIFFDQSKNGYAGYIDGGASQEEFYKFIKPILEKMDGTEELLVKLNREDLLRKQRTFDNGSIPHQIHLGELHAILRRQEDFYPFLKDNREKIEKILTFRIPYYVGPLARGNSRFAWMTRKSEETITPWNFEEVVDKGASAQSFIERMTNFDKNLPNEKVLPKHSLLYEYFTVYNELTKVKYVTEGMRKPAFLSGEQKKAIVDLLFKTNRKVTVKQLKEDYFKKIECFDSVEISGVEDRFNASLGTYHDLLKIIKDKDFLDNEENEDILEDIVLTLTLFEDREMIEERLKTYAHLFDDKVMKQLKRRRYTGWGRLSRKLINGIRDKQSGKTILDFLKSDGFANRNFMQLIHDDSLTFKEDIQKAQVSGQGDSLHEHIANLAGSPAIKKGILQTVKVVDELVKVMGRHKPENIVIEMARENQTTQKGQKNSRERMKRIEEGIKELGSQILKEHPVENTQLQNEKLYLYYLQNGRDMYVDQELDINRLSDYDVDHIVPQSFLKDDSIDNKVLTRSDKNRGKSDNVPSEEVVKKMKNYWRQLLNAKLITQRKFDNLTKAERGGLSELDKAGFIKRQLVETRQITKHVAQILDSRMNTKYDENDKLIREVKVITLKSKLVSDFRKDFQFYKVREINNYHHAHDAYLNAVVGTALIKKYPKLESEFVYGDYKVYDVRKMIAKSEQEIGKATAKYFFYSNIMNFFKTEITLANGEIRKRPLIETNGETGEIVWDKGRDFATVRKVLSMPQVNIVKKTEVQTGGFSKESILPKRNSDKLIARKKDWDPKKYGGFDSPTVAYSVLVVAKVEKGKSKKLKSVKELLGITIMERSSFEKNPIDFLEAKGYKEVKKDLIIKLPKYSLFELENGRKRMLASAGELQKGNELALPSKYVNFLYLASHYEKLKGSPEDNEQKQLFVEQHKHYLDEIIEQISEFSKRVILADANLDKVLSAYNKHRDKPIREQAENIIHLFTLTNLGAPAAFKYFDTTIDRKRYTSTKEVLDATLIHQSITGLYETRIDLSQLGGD

By IC50 is commonly meant the concentration that inhibits the measured activity by half. Take “KERRRSMMQLSVKSYTLFLGGT [Peptide 82-2-21]”: the IC50 in assay [1] is 31.8 µM; in assay [3], 40.9 µM; in assay [4], 51.8 µM. The “activity against SpyCas9, SauCas9 and CjeCas9 (in words)” value (shortened to “activity against SpyCas9”) in assay [2] is recorded as “particularly strong activity”.

As to “VRVFSAYERLLIRRRRRRRRAG [Peptide 60-1-10]”, the IC50 in assay [1] worked out at 27.2 µM; in assay [3] it was 27.3 µM; in assay [4], 30.1 µM. In assay [2], the “activity against SpyCas9” value is recorded as “particularly strong activity”.

As for VYDFYRMLSHFFLKGPSR [Peptide 91], the “activity of SpyCas9 (% activity, FRET)” value in assay [1] (peptide 100 μM) and in assay [1] (peptide 200 μM) was “significantly reduced activity” each time. Besides, the “activity of SauCas9 (% activity, FRET)” value in assay [5] (peptide 100 μM) is on record as “significantly reduced activity”; in assay [5] (peptide 200 μM), “significantly reduced activity; also recorded: reduced SauCas9 activity”. The “mechanism subset: blocks Cas9 RNP binding to target DNA or other mechanism” value in assay [6] is on record as “block Cas9 RNP binding to the target DNA”. Also, the “binding of SpyCas9 RNP to DNA substrate (beacon fluorescence)” value in assay [6] (peptide 40 μM, SpyCas9 500 nM, DNA substrate 50 nM) is “unaltered; also recorded: did not reduce substrate binding”.

On to “NRSHKILLHYNGCHYRLFLRSL [Peptide 90-1-27]”, for which the IC50 in assay [1] came to 28.5 µM; in assay [3] it was 45 µM; in assay [4], 58.3 µM. Moreover, the “activity against SpyCas9” value in assay [2] is “particularly strong activity”.
